Values quoted from earlier work as cited in article PMC8075256, “Transport of Alzheimer’s associated amyloid-β catalyzed by P-glycoprotein” (PLOS ONE, 2021).

Test system: P-gp and BCRP
Details: ref 65 Kannan et al.
From the text: To further test if P-gp can transport Aβ42, we performed fluorescence accumulation assays in a human cellular system. […] Previous work by our group has shown that the chemotherapy-sensitive, non-P-gp-overexpressing DU145 cells do express detecta ...

## COc1cc2c(cc1OC)CN(CCc1ccc(NC(=O)c3cc(OC)c(OC)cc3NC(=O)c3cnc4ccccc4c3)cc1)CC2 [Tariquidar]
  concentrations at which TQR acts as an inhibitor of both P-gp and BCRP: greater than 100 nM
